{
  "source": "patent EP3797781A1",
  "about": "“USE OF EC-7072 AND SYNERGIC COMPOSITIONS THEREOF IN TREATMENT OF CHRONIC LYMPHOCYTIC LEUKEMIA” (priority 2019, dated 2021)",
  "key": {"T cells and NK cells": {"tested_on": "T cells and NK cells", "experiment": "Intracellular staining of IFN-γ and perforin upon PMA/ionomycin stimulation", "assay_type": "cell-based, human", "settings": "200 nM, 24 hours, PBMCs from patients with CLL (n = 4)", "procedure": "PBMCs from patients with CLL were treated with 200 nM EC-7072 or DMSO for 24 hours and stimulated with PMA (50 ng/mL) and ionomycin (1 µg/mL) for 5 hours in the presence of GolgiPlug protein transport inhibitor (Beckton Dickinson). T cells and NK cells were then analyzed for intracellular levels of IFN-γ and perforin by flow cytometry.\nThe effect of EC-7072 toward healthy immune subsets, T lymphocytes and natural killer (NK) cells, which are chronically exposed to leukemia cells in the peripheral blood of patients with CLL was assessed by: • (i) incubating PBMCs isolated from patients with CLL (n = 10) following treatment with increasing concentrations of EC-7072 (0 - 400 nM) for 24 hours. Numbers of T cells (CD3^+CD56^-) (Figure 2A) and NK cells (CD3^-CD56^+) (Figure 2B) were evaluated by flow cytometry and normalized to their respective control (DMSO) condition for each individual patient to obtain percentage of relative number of T cells and NK cells, respectively; • (ii) incubating PBMCs isolated from patients with CLL (n = 6 - 10) following treatment with increasing concentrations of EC-7072 (0 - 400 nM) for 24 hours. […]"}, "[1]": {"tested_on": "isolated T cells from patients with CLL", "experiment": "qPCR analysis of BCL2 expression in isolated T cells", "assay_type": "cell-based, human", "settings": "200 nM, 6 hours; n = 3", "procedure": "Isolated leukemia cells from patients with CLL were incubated with EC-7072 (200 nM) or DMSO for 6 hours. Total RNA was extracted using RNeasy Mini Kit (Qiagen). 2 µg total RNA were used for cDNA synthesis using High-Capacity cDNA Reverse Transcription Kit (Applied Biosystems). Quantitative RT-PCR was performed using SYBR Green PCR Master Mix (Applied Biosystems) in a 7300 Real-Time PCR System and each sample was analyzed in triplicate. Table 1. Primers used in qPCR\nThe dysregulation of BCL2 expression in primary CLL by EC-7072 was evaluated by: • (i) incubating isolated CLL cells (n = 6) from patients with CLL following treatment with EC-7072 (200 nM) for 6 hours and extracting total RNA. Relative expression of BLC2 was determined by qPCR to obtain the mean relative expression to the control (DMSO) condition (Figure 6F); • (ii) incubating isolated CLL cells (n = 6) following treatment with 200 nM EC-7072 for 12 and 18 hours. BCL2 levels were evaluated by intracellular flow cytometry (Figure 6G); • (iii) incubating isolated T cells (n = 3) from patients with CLL following treatment with EC-7072 (200 nM) for 6 hours and extracting total RNA. […] T-cell death and apoptosis were assessed by DiOC6(3)/PI staining to obtain percentages of viable [DiOC6(3)^+] cells and the mean percentages of apoptotic [DiOC6(3)^low PI^-] and dead [PI^+] cells."}},
  "data": [
    {"smiles": "CO[C@@H]([C@@H]1Cc2cc3cc(O[C@H]4C[C@@H](O[C@H]5C[C@@H](O)[C@H](O)[C@@H](C)O5)[C@H](O)[C@@H](C)O4)c(C)c(O)c3c(O)c2C(=O)[C@H]1O[C@H]1C[C@@H](O[C@H]2C[C@@H](O[C@H]3C[C@](C)(O)[C@H](O)[C@@H](C)O3)[C@@H](O)[C@@H](C)O2)[C@H](O)[C@@H](C)O1)[C@@H](O)C(C)=O", "note": "[EC-7072, mithramycin SK]", "values": [
      {"measurement": "production of interferon (IFN)-γ and perforin by T cells and NK cells", "setting": "T cells and NK cells", "value": "not significantly altered"},
      {"measurement": "BCL2 expression in T cells", "setting": "[1]", "value": "not modulated"}
    ]}
  ]
}
